Among the data in patent US10526337B2, “Heteroaryl derivative or pharmaceutically acceptable salt thereof, preparation method therefor, and pharmaceutical composition for preventing or treating diseases associated with PI3 kinases, containing same as active ingredient” (KOREA RESEARCH INSTITUTE OF CHEMICAL TECHNOLOGY, priority 2015, dated 2020) are IC50 values, retold here.

Some results are limits rather than exact numbers.

What all share (details): ATP=10 uM, sample concentration=100 nM
Test [1] has as its target T1, PI3 Kinase (p110α/p85α) (h) (Homo sapiens, UniProt P42336).
T1 construct: endogenous in cells; host or cells: MDA-MB-453
In words: Inhibition of phosphatidylinositol 3-kinase alpha (PI3K α), pAkt Western blotting in EGF-stimulated MDA-MB-453 cells. It is filed as cell-based. The protocol:
The inhibition of phosphatidylinositol 3 kinase alpha (PI3K α) by those compounds prepared in Examples 1˜98 was investigated by the following experiment. The inhibition activity of each compound was measured in the following conditions: ATP=10 uM, and sample concentration=100 nM.
Human breast cancer cells (MDA-MB-453) cultured in DMEM (Dulbecco's Modified Eagle Medium, Hyclon, SH30243.01) supplemented with 10% fetal bovine serum (Hyclon, USA) were distributed in a 12-well plate at the density of 1,000,000 cells/well. The cells were stabilized in a 37° C. CO2 for 24 hours and then treated with each compound for 1 and half hours. The cells were treated with 10 ng/mL of EGF (Epidermal Growth Factor, 10 μg/mL; R&D, 2150-C5) to increase the intracellular activity of PI3K alpha. 5 minutes later, the medium was discarded and the cells were washed with cold PBS (phosphate buffered saline, Gibco, 14190-250). PBS was then eliminated completely by using a pipette. Western blotting was performed as described in step 2 to evaluate the intracellular PI3K alpha activity.
(§1) The stimulated cells were transferred in a 1.5 mL tube, followed by centrifugation at 3000 rpm for 1 minute. 100 μL of RIPA buffer (radioimmunoprecipitation assay buffer, 50 mM Tris-HCl, 5 mM EDTA, 150 mM NaCl, 1% NP-40, 1 mM PMSF, pH 8.0; ELPIS, Korea) was added thereto, which was stored in a 4° C. refrigerator for 12 hours. Centrifugation was performed at 4° C. at 14,000 rpm for 20 minutes. The supernatant was transferred into a new 1.5 mL tube. Protein was quantified by BCA (bicinchoninic acid) method and samples were prepared. The composition of the sample was as follows: sample buffer (ELPIS, EBA-1052) 5×, protein 10 μg, and 1× sample buffer to make the total volume 20 μL. The sample was heated at 100° C. for 5 minutes. The evaporated water vapor was condensed in a refrigerator. The liquid stained on the wall was fallen down by centrifugation for a few seconds. The sample proceeded to 10% SDS (Sodium Dodecyl Sulfate) acrylamide gel for separation. The separated protein was transferred onto PVDF (poly-vinyl difluoride) membrane, followed by reaction with pAkt (phospho protein kinase B) antibody (Ser473 or Thr308; Cell signaling, 9271s or 13038s) for 12 hours at 4° C. The membrane was washed with TBST (Tris-Buffered Saline with Tween 20, 10 mM Tris-HCl, pH 7.5, 150 mM NaCl, 0.1% Tween-20) three times for 5 minutes each, to which the secondary antibody (rabbit antibody, Santacruz, sc-2004) was added, followed by reaction at room temperature for 2 hours. The membrane was washed with TBST three times for 10 minutes each, to which ECL (enhanced chemiluminescence, Thermo, NCI34095KR) was sprayed. Bands were investigated by using LAS-3000.

In test [2] the target is T2, PI3 Kinase (p110β/p86α) (h) (Homo sapiens, UniProt P42338).
T2 construct: endogenous in cells; host or cells: PC3
Description: Inhibition of phosphatidylinositol 3-kinase beta (PI3K β), pAkt Western blotting in LPA-stimulated PC3 cells. It is filed as cell-based. The protocol:
as §1
The inhibition of phosphatidylinositol 3 kinase beta (PI3K β) by those compounds prepared in Examples 1˜98 was investigated by the following experiment. The inhibition activity of each compound was measured in the following conditions: ATP=10 uM, and sample concentration=100 nM.
Human prostate cancer cells (PC3 cells) cultured in DMEM (Dulbecco's Modified Eagle Medium, Hyclon, SH30243.01) supplemented with 10% fetal bovine serum (Hyclon, USA) were distributed in a 12-well plate at the density of 1,000,000 cells/well. The cells were stabilized in a 37° C. CO2 for 24 hours and then treated with each compound for 1 and half hours. The cells were treated with 10 ng/mL of LPA (lysophosphatidic acid, 10 μg/mL; R&D, 2150-05) to increase the intracellular activity of PI3K beta. 5 minutes later, the medium was discarded and the cells were washed with cold PBS (phosphate buffered saline, Gibco, 14190-250). PBS was then eliminated completely by using a pipette. Western blotting was performed according to the same manner as described in step 2 of Experimental Example 1 to evaluate the intracellular PI3K beta activity.

Test [3] concerns the target T3, PI3 Kinase (p120γ) (h) (Homo sapiens, UniProt P48736).
T3 construct: endogenous in cells; host or cells: RAW264.7
Description: Inhibition of phosphatidylinositol 3-kinase gamma (PI3K γ), pAkt Western blotting in C5a-stimulated RAW264.7 macrophages. Type of test: cell-based, mouse. Summed up:
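Enzyme: PI3Kγ activity measured at ATP=10 uM with compound at 100 nM. Cellular: RAW264.7 macrophages treated with compound 1.5 h, then stimulated with 10 ng/mL C5a for 5 min; lysates (10 μg protein) probed by Western blot for pAkt (Ser473 or Thr308), ECL detection.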

Test [4] concerns the target T4, PI3 Kinase (p110δ/p85α) (h) (Homo sapiens, UniProt O00329).
T4 construct: endogenous in cells; host or cells: Raji
In words: Inhibition of phosphatidylinositol 3-kinase delta (PI3K δ), pAkt Western blotting in IgM-stimulated Raji cells. Type of test: cell-based. An outline of the steps:
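Raji cells were treated with compound for 1.5 h, then stimulated with 0.25 μg/mL IgM for 30 min to activate PI3Kδ. Lysates were Western blotted for pAkt (Ser473 or Thr308) with ECL detection. Conditions stated: ATP=10 uM, sample concentration=100 nM.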

T4 sequence (O00329 whole entry): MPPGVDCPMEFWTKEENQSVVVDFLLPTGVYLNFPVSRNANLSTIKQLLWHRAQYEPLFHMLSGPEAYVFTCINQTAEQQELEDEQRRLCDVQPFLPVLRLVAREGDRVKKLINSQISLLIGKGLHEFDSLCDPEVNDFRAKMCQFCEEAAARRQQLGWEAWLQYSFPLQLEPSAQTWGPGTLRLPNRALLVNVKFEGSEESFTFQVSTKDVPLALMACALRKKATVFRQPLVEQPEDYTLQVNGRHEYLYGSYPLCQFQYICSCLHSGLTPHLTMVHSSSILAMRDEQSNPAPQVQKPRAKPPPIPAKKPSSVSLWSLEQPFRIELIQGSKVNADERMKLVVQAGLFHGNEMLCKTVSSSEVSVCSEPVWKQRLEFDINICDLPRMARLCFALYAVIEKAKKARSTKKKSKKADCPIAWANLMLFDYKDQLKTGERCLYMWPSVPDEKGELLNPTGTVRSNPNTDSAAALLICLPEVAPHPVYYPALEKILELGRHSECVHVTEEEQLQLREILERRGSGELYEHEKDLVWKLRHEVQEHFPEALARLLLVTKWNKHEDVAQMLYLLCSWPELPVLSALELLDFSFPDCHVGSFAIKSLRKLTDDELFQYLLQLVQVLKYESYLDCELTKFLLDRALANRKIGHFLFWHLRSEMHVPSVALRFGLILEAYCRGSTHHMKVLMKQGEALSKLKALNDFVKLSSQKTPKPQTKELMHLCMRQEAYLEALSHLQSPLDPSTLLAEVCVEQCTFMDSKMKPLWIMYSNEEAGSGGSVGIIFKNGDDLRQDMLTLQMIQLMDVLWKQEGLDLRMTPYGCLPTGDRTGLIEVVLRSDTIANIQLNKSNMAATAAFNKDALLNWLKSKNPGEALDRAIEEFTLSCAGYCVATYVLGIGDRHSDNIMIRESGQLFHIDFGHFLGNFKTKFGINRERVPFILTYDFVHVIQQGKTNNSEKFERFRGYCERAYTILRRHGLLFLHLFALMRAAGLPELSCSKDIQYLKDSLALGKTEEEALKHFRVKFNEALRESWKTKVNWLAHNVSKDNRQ
T4 sequence (P27986 whole entry partner): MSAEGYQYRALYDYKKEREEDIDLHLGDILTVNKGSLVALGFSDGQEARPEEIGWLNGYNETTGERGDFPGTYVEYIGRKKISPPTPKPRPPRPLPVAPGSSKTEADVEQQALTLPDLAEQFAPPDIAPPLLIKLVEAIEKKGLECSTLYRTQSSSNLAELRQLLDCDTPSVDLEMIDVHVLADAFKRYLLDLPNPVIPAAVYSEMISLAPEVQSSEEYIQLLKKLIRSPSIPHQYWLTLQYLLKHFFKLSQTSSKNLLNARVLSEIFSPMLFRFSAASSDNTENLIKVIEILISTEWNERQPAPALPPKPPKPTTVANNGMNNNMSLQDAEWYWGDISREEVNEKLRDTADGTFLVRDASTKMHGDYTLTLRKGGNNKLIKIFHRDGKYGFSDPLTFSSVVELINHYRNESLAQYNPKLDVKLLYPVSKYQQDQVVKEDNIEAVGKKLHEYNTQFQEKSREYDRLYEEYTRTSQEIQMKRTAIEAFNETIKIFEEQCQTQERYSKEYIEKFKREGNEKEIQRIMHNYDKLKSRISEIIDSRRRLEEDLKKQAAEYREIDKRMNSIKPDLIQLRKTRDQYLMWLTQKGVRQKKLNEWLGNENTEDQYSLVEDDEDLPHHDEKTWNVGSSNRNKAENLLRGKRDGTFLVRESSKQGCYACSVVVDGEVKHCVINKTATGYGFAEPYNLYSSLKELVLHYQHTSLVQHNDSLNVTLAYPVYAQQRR
T2 sequence (P42338 whole entry): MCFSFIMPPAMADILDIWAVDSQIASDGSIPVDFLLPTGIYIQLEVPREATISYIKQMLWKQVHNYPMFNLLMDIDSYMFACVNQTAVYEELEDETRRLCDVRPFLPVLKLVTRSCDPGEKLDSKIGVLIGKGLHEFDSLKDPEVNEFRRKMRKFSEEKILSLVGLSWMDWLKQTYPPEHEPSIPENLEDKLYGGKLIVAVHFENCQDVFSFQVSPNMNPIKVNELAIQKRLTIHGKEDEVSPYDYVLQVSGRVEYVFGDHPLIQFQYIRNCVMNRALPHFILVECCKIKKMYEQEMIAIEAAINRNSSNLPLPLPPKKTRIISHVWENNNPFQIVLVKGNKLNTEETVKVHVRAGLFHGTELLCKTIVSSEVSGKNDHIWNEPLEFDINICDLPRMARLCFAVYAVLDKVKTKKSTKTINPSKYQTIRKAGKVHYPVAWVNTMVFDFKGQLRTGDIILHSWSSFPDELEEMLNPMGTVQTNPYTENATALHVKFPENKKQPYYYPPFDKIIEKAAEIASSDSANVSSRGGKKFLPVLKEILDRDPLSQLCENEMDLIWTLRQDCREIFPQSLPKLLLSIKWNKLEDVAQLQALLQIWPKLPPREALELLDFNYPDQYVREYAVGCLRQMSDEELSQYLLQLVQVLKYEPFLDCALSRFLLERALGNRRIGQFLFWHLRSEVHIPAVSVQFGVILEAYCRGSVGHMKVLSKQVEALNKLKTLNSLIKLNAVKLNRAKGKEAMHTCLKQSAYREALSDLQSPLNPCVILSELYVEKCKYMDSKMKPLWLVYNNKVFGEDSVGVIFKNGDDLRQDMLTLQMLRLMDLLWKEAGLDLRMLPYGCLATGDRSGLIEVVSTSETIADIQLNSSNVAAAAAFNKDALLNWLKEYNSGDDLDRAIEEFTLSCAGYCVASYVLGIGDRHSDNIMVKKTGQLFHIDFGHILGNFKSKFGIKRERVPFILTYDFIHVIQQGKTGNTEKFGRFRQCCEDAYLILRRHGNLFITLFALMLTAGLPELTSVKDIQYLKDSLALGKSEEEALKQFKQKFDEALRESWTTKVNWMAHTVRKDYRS
T2 sequence (P27986 whole entry partner): as the sequence (P27986 whole entry partner) above
T1 sequence (P42336 whole entry): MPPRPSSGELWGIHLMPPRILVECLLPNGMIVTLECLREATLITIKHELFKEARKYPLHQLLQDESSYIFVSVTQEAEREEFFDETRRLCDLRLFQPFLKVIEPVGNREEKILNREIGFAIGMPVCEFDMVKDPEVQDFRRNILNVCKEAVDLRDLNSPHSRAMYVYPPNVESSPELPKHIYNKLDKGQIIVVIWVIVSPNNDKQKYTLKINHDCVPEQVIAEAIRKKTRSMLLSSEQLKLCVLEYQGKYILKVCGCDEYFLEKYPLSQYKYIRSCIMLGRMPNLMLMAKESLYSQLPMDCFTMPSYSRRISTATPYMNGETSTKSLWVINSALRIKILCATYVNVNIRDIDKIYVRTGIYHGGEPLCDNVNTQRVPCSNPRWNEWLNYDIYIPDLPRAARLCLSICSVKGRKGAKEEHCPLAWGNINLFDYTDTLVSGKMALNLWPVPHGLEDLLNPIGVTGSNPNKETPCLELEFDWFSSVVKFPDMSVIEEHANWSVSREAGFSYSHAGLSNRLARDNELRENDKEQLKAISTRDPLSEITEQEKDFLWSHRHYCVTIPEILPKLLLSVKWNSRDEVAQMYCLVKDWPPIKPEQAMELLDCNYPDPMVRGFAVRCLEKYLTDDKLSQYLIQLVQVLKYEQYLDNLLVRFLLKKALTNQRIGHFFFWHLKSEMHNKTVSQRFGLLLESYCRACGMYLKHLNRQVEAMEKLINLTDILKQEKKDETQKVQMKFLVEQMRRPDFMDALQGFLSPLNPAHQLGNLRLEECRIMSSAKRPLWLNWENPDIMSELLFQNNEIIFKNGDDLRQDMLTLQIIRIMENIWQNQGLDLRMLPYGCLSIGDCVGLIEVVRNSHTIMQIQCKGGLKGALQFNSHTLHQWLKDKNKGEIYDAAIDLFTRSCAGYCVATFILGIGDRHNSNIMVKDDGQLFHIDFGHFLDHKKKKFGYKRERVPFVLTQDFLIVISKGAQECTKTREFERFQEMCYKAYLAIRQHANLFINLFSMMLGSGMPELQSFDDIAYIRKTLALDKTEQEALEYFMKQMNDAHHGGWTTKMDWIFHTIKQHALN
T1 sequence (P27986 2-724 partner limits assumed): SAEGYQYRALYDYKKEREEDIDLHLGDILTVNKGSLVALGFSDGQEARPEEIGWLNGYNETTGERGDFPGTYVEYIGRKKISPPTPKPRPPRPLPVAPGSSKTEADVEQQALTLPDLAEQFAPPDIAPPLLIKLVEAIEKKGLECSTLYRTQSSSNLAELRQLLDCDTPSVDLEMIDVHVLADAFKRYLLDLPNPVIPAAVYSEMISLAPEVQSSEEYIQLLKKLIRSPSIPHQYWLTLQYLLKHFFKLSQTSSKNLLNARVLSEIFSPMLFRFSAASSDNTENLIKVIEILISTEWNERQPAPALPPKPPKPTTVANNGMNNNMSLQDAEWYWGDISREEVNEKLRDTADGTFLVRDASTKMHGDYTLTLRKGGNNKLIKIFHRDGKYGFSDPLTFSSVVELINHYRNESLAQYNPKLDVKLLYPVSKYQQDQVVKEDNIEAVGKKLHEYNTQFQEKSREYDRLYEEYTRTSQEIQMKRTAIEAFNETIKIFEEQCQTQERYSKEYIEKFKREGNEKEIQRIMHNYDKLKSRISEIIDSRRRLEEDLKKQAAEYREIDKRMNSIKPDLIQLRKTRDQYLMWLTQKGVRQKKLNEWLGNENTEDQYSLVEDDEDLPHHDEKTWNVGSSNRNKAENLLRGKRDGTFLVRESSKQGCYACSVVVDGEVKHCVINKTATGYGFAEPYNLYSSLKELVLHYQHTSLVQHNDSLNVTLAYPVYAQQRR

As for `C[C@H](Nc1ncnc2[nH]ccc(=O)c12)c1nc2ccc(F)cc2c(=O)n1-c1ccccc1` [Example 29, (S)-4-((1-(6-fluoro-4-oxo-3-phenyl-3,4-dihydroquinazoline-2-yl)ethyl)amino)pyrido[2,3-d]pyrimidine-5(8H)-one], the concentration for half-maximal inhibition (IC50) in test [1] was more than 500 nM; in test [2], more than 500 nM; in test [3], 10 to 500 nM; in test [4], less than 10 nM.

On to `C[C@H](Nc1ncnc2[nH]ccc(=O)c12)c1nc2ccc(F)cc2c(=O)n1-c1cccc(F)c1` [Example 30, (S)-4-((1-(6-fluoro-3-(3-fluorophenyl)-4-oxo-3,4-dihydroquinazoline-2-yl)ethyl)amino)pyrido[2,3-d]pyrimidine-5(8H)-one], for which the half-maximal inhibitory concentration (IC50) is more than 500 nM in test [1], more than 500 nM in test [2], 10 to 500 nM in test [3] and less than 10 nM in test [4].

For the compound `C[C@H](Nc1ncnc2[nH]ccc(=O)c12)c1nc2cccc(Cl)c2c(=O)n1Cc1ccccc1Cl` [Example 31, (S)-4-((1-(5-chloro-3-(2-chlorobenzyl)-4-oxo-3,4-dihydroquinazoline-2-yl)ethyl)amino)pyrido[2,3-d]pyrimidine-5(8H)-one], the IC50 in test [1] was more than 500 nM; in test [2], more than 500 nM; in test [3], more than 500 nM; in test [4], 10 to 500 nM.

Take `CC(Nc1ncnc2[nH]ccc(=O)c12)c1nc2cccc(Cl)c2cc1-c1ccccn1` (centres unmarked) [Example 33, 4-((1-(5-chloro-3-(pyridine-2-yl)quinoline-2-yl)ethyl)amino)pyrido[2,3-d]pyrimidine-5(8H)-one]: the IC50 in test [1] is more than 500 nM; in test [2], more than 500 nM; in test [3] it was 10 to 500 nM; in test [4], less than 10 nM.

In the case of `C[C@H](Nc1ncnc2c1C(=O)N(C)CN2)c1cc2cccc(Cl)c2c(=O)n1-c1ccccc1` [Example 38, (S)-5-((1-(8-chloro-1-oxo-2-phenyl-1,2-dihydroisoquinoline-3-yl)ethyl)amino)-3-methyl-2,3-dihydropyrimido[4,5-d]pyrimidine-4(1H)-one], the IC50 in test [1] was 10 to 500 nM; in test [2] it was more than 500 nM; in test [3] it was less than 10 nM; in test [4] it was less than 10 nM.

As to `C[C@H](Nc1ncnc2c1C(=O)N(C)CN2)c1c(Cl)c2cccc(Cl)c2c(=O)n1-c1ccccc1` [Example 40, (S)-5-((1-(4,8-dichloro-1-oxo-2-phenyl-1,2-dihydroisoquinoline-3-yl)ethyl)amino)-3-methyl-2,3-dihydropyrimido[4,5-d]pyrimidine-4(1H)-one], the IC50 in test [1] was more than 500 nM; in test [2], more than 500 nM; in test [3] it was 10 to 500 nM; in test [4], less than 10 nM.

With `CCN1CNc2ncnc(N[C@@H](C)c3cc4cccc(Cl)c4c(=O)n3-c3ccccc3)c2C1=O` [Example 60, (S)-5-(1-(8-chloro-1-oxo-2-phenyl-1,2-dihydroisoquinoline-3-yl)ethylamino)-3-ethyl-2,3-dihydropyrimido[4,5-d]pyrimidine-4(1H)-one], the IC50 in test [1] was more than 500 nM; in test [2] it was more than 500 nM; in test [3] it was 10 to 500 nM; in test [4] it was 10 to 500 nM.

With `CCCN1CNc2ncnc(N[C@@H](C)c3cc4cccc(Cl)c4c(=O)n3-c3ccccc3)c2C1=O` [Example 61, (S)-5-(1-(8-chloro-1-oxo-2-phenyl-1,2-dihydroisoquinoline-3-yl)ethylamino)-3-propyl-2,3-dihydropyrimido[4,5-d]pyrimidine-4(1H)-one], the IC50 in test [1], in test [2], in test [3] and in test [4] was more than 500 nM each time.

On to `C[C@H](Nc1ncnc2c1C(=O)N(C1CC1)CN2)c1cc2cccc(Cl)c2c(=O)n1-c1ccccc1` [Example 62, (S)-5-(1-(8-chloro-1-oxo-2-phenyl-1,2-dihydroisoquinoline-3-yl)ethylamino)-3-cyclopropyl-2,3-dihydropyrimido[4,5-d]pyrimidine-4(1H)-one], for which the IC50 in test [1], in test [2], in test [3] and in test [4] was more than 500 nM throughout.

`C[C@H](Nc1ncnc2c1C(=O)N(C1CCCC1)CN2)c1cc2cccc(Cl)c2c(=O)n1-c1ccccc1` [Example 63, (S)-5-(1-(8-chloro-1-oxo-2-phenyl-1,2-dihydroisoquinoline-3-yl)ethylamino)-3-cyclopentyl-2,3-dihydropyrimido[4,5-d]pyrimidine-4(1H)-one]: the 50% inhibitory concentration (IC50) in test [1], in test [2], in test [3] and in test [4] was more than 500 nM in each case.

On to `O=c1nc[nH]c2ncnc(N3CCC[C@H]3c3nn4ccc(Cl)c4c(=O)n3-c3ccccc3)c12` [Example 79, (S)-5-(2-(5-chloro-4-oxo-3-phenyl-3,4-dihydropyrrolo[2,1-f][1,2,4]triazine-2-yl)pyrrolidine-1-yl)pyrimido[4,5-d]pyrimidine-4(1H)-one], for which the half-maximal inhibitory concentration (IC50) in test [1], in test [2], in test [3] and in test [4] was more than 500 nM each time.

With `C[C@H](Nc1nc(N)nc2[nH]cnc(=O)c12)c1cc2cccc(Cl)c2c(=O)n1-c1ccccc1` [Example 85, (S)-7-amino-5-(1-(8-chloro-1-oxo-2-phenyl-1,2-dihydroisoquinoline-3-yl)ethylamino)pyrimido[4,5-d]pyrimidine-4(1H)-one], the IC50 was more than 500 nM in test [1], more than 500 nM in test [2], 10 to 500 nM in test [3] and 10 to 500 nM in test [4].

`C[C@H](Nc1nc(N)nc2[nH]cnc(=O)c12)c1cc2ccccc2nc1-c1ccccc1` [Example 88, (S)-7-amino-5-((1-(2-phenylquinoline-3-yl)ethyl)amino)pyrimido[4,5-d]pyrimidine-4(1H)-one]: the concentration for half-maximal inhibition (IC50) in test [1], in test [2], in test [3] and in test [4] was 10 to 500 nM throughout.

Take `Nc1nc(N2CCC[C@H]2c2nn3ccc(Cl)c3c(=O)n2-c2ccccc2)c2c(=O)nc[nH]c2n1` [Example 95, (S)-7-amino-5-(2-(5-chloro-4-oxo-3-phenyl-3,4-dihydropyrrolo[2,1-f][1,2,4]triazine-2-yl)pyrrolidine-1-yl)pyrimido[4,5-d]pyrimidine-4(1H)-one]: the IC50 in test [1] was more than 500 nM; in test [2] it was more than 500 nM; in test [3], 10 to 500 nM; in test [4], 10 to 500 nM.
